# From patent publication US9248928B2, “Methods of manufacturing contact lenses for delivery of beneficial agents” (CooperVision International Holding Company, LP, priority 2012, dated 2016)
# Counter-ions that a name gives are not always drawn. Like-named read-outs stand apart in the source and are kept apart here.
# Assays:
# [1] = Autoclave stability of cationic agents in packaging solution
# Description: (§1) As used herein, a cationic agent is considered to be autoclave-stable in a given package and packaging solution if there is less than 2% degradation of the cationic agent after it is autoclaved two times in its intended package and packaging solution without a lens present, wherein the autoclave conditions used are 120° C. for 30 minutes at about 17 psi. A reference to 2× or 3× autoclave of a package is intended to include a step of allowing the package to cool to room temperature before and after the 2nd, and if applicable, 3rd autoclave treatments. The amount of degradation is determined using an HPLC method appropriate for the cationic agent being tested. Alternatively or additionally, a cationic agent is considered autoclave-stable in a given packaging solution if the percentage of cationic agent that can be extracted from the lens after 2× autoclave is more than 95% of the percentage of cationic agent that can be extracted from a non-autoclaved lens packaged in the same packaging solution and kept at room temperature for 24 hours, where the extraction method used is substantially as described in Example 4, or an equivalent method. The percentage of cationic agent extracted from the autoclaved (test) and non-autoclaved (control) lenses is determined relative to the amount of cationic agent taken up by the test and control lenses, respectfully. Thus, for example, a control lens may take up 100 μg of a cationic agent from a packaging solution after 24 hours at room temperature and 97 μg (i.e. 97%) of the cationic agent can be extracted from the lens. If the corresponding test (2× autoclaved) lens takes up 120 μg of the cationic agent from the packaging solution, but only 108 μg (i.e. 90%) of the cationic agent is extracted using the same extraction method as for the control lens, then there is considered to be a 7% difference between the amount cationic agent extracted from control and test lenses.
# Both εPLL and epinastine have primary amine groups, whereas olopatadine and ketotifen have none. […] TRIS buffer drops in pH with increased temperature, down to a pH of about 4.3 during autoclave. […] Thus, in one example, the packaging solution used in the method of manufacturing the contact lenses described herein is temperature-sensitive. By temperature-sensitive, it is meant that the pH of the packaging solution drops by at least one (e.g a drop from pH 7.5 to pH 6.5) during autoclave at 120° C. for 30 minutes. In specific examples, the pH of the temperature-sensitive packaging solution drops during autoclave by at least 1.5, 2.0, or 2.5. Exemplary temperature-sensitive buffers include {[tris(hydroxymethyl)methyl]amino}propanesulfonic acid (TAPS), N,N-bis(21-hydroxyethyl)glycine (Bicine), tris(hycroxymethyl)methylamine (TRIS), N-tris(hydroxymethyl)methylglycine (Tricine), {[tris(hydroxymethyl)methyl]amino}ethanesulfonic acid (TES), 3-(N-morpholino)propanesulfonic acid (MOPS), and the like. […] In one such example, the packaging solution comprises a TRIS buffer. In a further example, the cationic agent comprises a primary amine. In yet a further example, the cationic agent is epinastine or εPLL and the packaging solution comprises a TRIS buffer.
# [2] = for % of the epinastine taken up by the lens that released (extracted): PBS
# Description: as §1
# The packaged lenses were either autoclaved once or twice for 20 minutes at 120° C. and then kept at room temperature overnight, or kept at room temperature overnight without autoclaving. 1.2 ml PBS comprising 200 μg/ml epinastine HCL was autoclaved once or twice in a glass vial without a lens (autoclave control solution).
# Each lens was blotted dry with lint-free paper, and placed in a vial containing 10 ml of an extraction medium consisting of 60 parts of 0.3% triethylamine in deionized (pH adjusted to 4.0 using phosphoric acid) and 40 parts methanol. The vials were sonicated for 30 minutes at room temperature. The lens were removed from the extraction solution and transferred to individual vials containing 5 ml of fresh extraction medium and sonicated again for 30 minutes. For each lens, the extraction media was combined to obtain 15 ml extraction medium for each lens and the amount of epinastine extracted from each lens was measured by HPLC.
# The study was repeated using silicone hydrogel contact lenses prepared according to Example 1 and packaged in TRIS buffer (described above) comprising 150 μg/ml epinastine. The lenses were autoclaved 0-3 times each.
# [3] = Autoclave stability of εPLL in PBS or TRIS buffered saline by HPLC; type: physicochemical; settings: 500 ppm εPLL, no lens
# Description: […] The samples were tested by HPLC at a sufficient resolution to achieve a discernable peak for each molecular weight fraction of the εPLL.
# [4] = Autoclave # 0, silicone hydrogel lens, TRIS buffer with 150 μg/ml epinastine
# [5] = Autoclave # 1x, silicone hydrogel lens, TRIS buffer with 150 μg/ml epinastine
# [6] = Autoclave # 2x, silicone hydrogel lens, TRIS buffer with 150 μg/ml epinastine
# [7] = Autoclave # 3x, silicone hydrogel lens, TRIS buffer with 150 μg/ml epinastine
# [8] = Ocufilcon D lens, Autoclaved, PBS with 200 μg/ml epinastine HCl
# [9] = Ocufilcon D lens, Non-Autoclaved, PBS with 200 μg/ml epinastine HCl
# [10] = Silicone hydrogel lens (2x autoclave), PBS with 200 μg/ml epinastine HCl
# [11] = Silicone hydrogel lens, Autoclaved, PBS with 200 μg/ml epinastine HCl
# [12] = Silicone hydrogel lens, Non-Autoclaved, PBS with 200 μg/ml epinastine HCl
# [13] = TBS, 9 autoclaves (so in the source)
compound,measurement,setting,value
NC1=NCC2c3ccccc3Cc3ccccc3N12 (stereo not drawn) [epinastine],autoclave stability,[1]; in PBS,not autoclave-stable
same,autoclave stability,[1]; in TRIS buffer,autoclave-stable
same,% Δ,[2]; [4],0.2%
same,Extracted Amt.,[2]; [4],148.1 µg
same,Δ,[2]; [4],0.3 µg
same,% Δ,[2]; [5],1.3%
same,Extracted Amt.,[2]; [5],148.6 µg
same,Δ,[2]; [5],1.9 µg
same,% Δ,[2]; [6],1.3%
same,Extracted Amt.,[2]; [6],145.4 µg
same,Δ,[2]; [6],1.9 µg
same,% Δ,[2]; [7],3.0%
same,Extracted Amt.,[2]; [7],85.9 µg
same,Δ,[2]; [7],2.6 µg
same,% Δ,[2]; [8],7%
same,Extr. Amt.,[2]; [8],240.4 µg
same,Δ (uptake minus extracted),[2]; [8],18.5 µg
same,% Δ,[2]; [9],2%
same,Extr. Amt.,[2]; [9],243.5 µg
same,Δ (uptake minus extracted),[2]; [9],5.6 µg
same,% Δ,[2]; [10],18%
same,Extr. Amt.,[2]; [10],163.4 µg
same,Δ (uptake minus extracted),[2]; [10],36.3 µg
same,% Δ,[2]; [11],10%
same,Extr. Amt.,[2]; [11],184.5 µg
same,Δ (uptake minus extracted),[2]; [11],20.1 µg
same,% Δ,[2]; [12],1%
same,Extr. Amt.,[2]; [12],181.7 µg
same,Δ (uptake minus extracted),[2]; [12],1.3 µg
same,% of the epinastine taken up by the lens that released (extracted),[2]; autoclaved ocufilcon D lens,about 93%
same,% of the epinastine taken up by the lens that released (extracted),[2]; autoclaved silicone hydrogel lens,~90%
same,% of the epinastine taken up by the lens that released (extracted),[2]; non-autoclaved control ocufilcon D lens,98%
same,% of the epinastine taken up by the lens that released (extracted),[2]; non-autoclaved control silicone hydrogel lens,99%
same,% of the epinastine taken up by the lens that released (extracted),[2]; silicone hydrogel lens autoclaved a second time,about 82%
CN1CCC(=C2c3ccccc3CC(=O)c3sccc32)CC1 [ketotifen fumarate],autoclave stability,[1],autoclave-stable
CN(C)CC/C=C1/c2ccccc2COc2ccc(CC(=O)O)cc21 [olopatadine HCl],autoclave stability,[1],autoclave-stable
epsilon poly-1-lysine [εPLL],autoclave stability,[1]; in PBS,not autoclave-stable
same,autoclave stability,[1]; in TRIS buffer,autoclave-stable
same,Total # peaks,"[3]; PBS, 0 autoclaves",23
same,Total peak area,"[3]; PBS, 0 autoclaves",16005557
same,% Area (relative to non-autoclaved),"[3]; PBS, 2 autoclaves",91%
same,Total # peaks,"[3]; PBS, 2 autoclaves",28
same,Total peak area,"[3]; PBS, 2 autoclaves",14566887
same,% Area (relative to non-autoclaved),"[3]; PBS, 4 autoclaves",90%
same,Total # peaks,"[3]; PBS, 4 autoclaves",28
same,Total peak area,"[3]; PBS, 4 autoclaves",14468122
same,% Area (relative to non-autoclaved),"[3]; TBS, 2 autoclaves",99%
same,Total # peaks,"[3]; TBS, 2 autoclaves",27
same,Total peak area,"[3]; TBS, 2 autoclaves",14636372
same,% Area (relative to non-autoclaved),"[3]; TBS, 4 autoclaves",98%
same,Total # peaks,"[3]; TBS, 4 autoclaves",27
same,Total peak area,"[3]; TBS, 4 autoclaves",14476291
same,Total # peaks,[3]; [13],23
same,Total peak area,[3]; [13],14800289
